Laboratory results: PMC5554220, “A Novel Aldosterone Antagonist Limits Renal Injury in 5/6 Nephrectomy” (Scientific Reports, 2017)

Legend:
[1] = Permeability (data not shown); format: in vitro ADME
[2] = tested on: rats with 5/6 renal ablation (Nx); assay: Protocol 2 (late treatment), 5/6 renal ablation (Nx); format: in vivo, male Munich-Wistar rats; details: Ly as an add-on to L, Day 150
Excerpt: One-hundred forty-five adult male Munich-Wistar rats, obtained from a local facility at the Faculty of Medicine, University of São Paulo, weighing between 220 and 250 g, were used in this study. All experimental procedures were approved by the local Research Ethics Committee (Comissão de Ética para Análise de Projetos de Pesquisa do Hospital das Clínicas da Faculdade de Medicina da Universidade de São Paulo, CAPPesq, process n° 0905/09), and carried out following strictly our institutional guidelines and current international standards for manipulation and care of laboratory animals. Body weights and general conditions were assessed daily. Five-sixths renal ablation (Nx) was performed as a single-step procedure under anesthesia with ketamine 50 mg/kg and xylazine 10 mg/kg im. After ventral laparotomy, the right kidney was excised and two or three branches of the left renal artery were ligated, so as to promote infarction of two-thirds of the left kidney. The operation was invariably well tolerated. Sham-operated rats underwent anesthesia and manipulation of the renal pedicles without removal of renal mass. After surgery, rats received enrofloxacin and, upon recovery, had free access to tap water and regular rodent chow containing 0.5 Na and 22% protein (Nuvital Labs, Curitiba, Brazil), and were kept at 23 ± 1 °C and 60 ± 5% relative air humidity, under an artificial 12–12 hour light/dark cycle. Rats were then treated following two different experimental protocols (described later).
In Protocol 2, adult male Munich-Wistar rats were subjected to Nx as described earlier, and left untreated for two months. At this time, TCP and UalbV were assessed as described earlier. Rats with TCP ≤ 170 mmHg or UalbV ≤ 40 mg/day were excluded from the study. The remaining […] Nx rats were divided into four experimental groups: Nx + V (N = 14), untreated Nx rats; Nx + L (N = 15), receiving oral L, 50 mg/kg in drinking water; Nx + L + Eple (N = 14), receiving L and Eple (N = 14), 150 mg/kg/day; and Nx + L + Ly (N = 14), receiving L and Ly (20 mg/kg/day) as described before. A group of S rats (N = 16) was also included. All groups were followed for 90 days after treatments were started (150 days after nephrectomy), with monthly measurement of TCP and UalbV. At the end of this period, rats were anesthetized, blood was collected, and the renal tissue was perfusion-fixed and prepared for histomorphometric and immunohistochemical examination in the same manner as for Protocol 1.
Histomorphometric analysis was performed blindly by two independent observers. The extent of glomerular injury was estimated, in PAS-stained sections, by determining the percentage of glomeruli with sclerotic lesions. The fraction of the renal cortical area occupied by interstitial tissue (%INT) was estimated in 25 consecutive microscopic fields of Masson-stained sections by a point-counting technique, at a final magnification of 200X, under a 144-point grid.
Immunohistochemistry was performed on 4-μm-thick sections, mounted on glass slides precoated with 2% silane. Sections were deparaffinized and rehydrated by conventional techniques, then heated in citrate buffer for antigen retrieval and incubated overnight with the primary antibody at 4 °C (no antibody in negative control experiments). Primary antibodies used were: monoclonal mouse anti-rat ED-1 (Serotec, Oxford, UK); polyclonal rabbit anti-human AngII (Peninsula Laboratories, San Carlos, CA); and polyclonal rabbit anti-collagen I (Abcam, Cambridge, UK).
For ED-1 detection, sections were preincubated with 5% normal rabbit serum to prevent nonspecific binding, then incubated overnight at 4 °C with the primary antibody diluted in BSA at 1%. […]

In the case of `O=c1[nH]c2ccc(/C=C3\c4ccc(F)cc4COc4cc(F)ccc43)cc2[nH]1` [Ly], the Permeability [1] is reported as “good permeability” and the “Interstitial expansion (cortical interstitial area)” value [2] is reported as “reduced to levels significantly lower than in the Nx + V group”.
